Reference: patent publication US9090600B2, “Fungicidal 4-substituted-3-{phenyl[(heterocyclylmethoxy)imino]methyl}-1,2,4-oxadizol-5(4H)-one derivatives” (BAYER INTELLECTUAL PROPERTY GMBH, priority 2011, dated 2015)
Marks after values point to notes of the source that are not given here.

Details: pH 2.7

SMILES | LogP
CC(C)CSC(=O)Nc1cccc(CO/N=C(/c2ccccc2)c2noc(=O)n2C)n1 [Example 241] | 4.39 [a]
C#CC(C)OC(=O)Nc1cccc(CO/N=C(/c2ccccc2)c2noc(=O)n2C)n1 (stereo not shown) [Example 242] | 3.41 [a]
Cn1c(C(=NOCc2cccc(NC(=O)OC(C)(C)C)n2)c2cccc(F)c2F)noc1=O [Example 249] | 3.94 [a]
Cc1ccc(C(=NOCc2csc(NC(=O)Cc3ccccc3)n2)c2noc(=O)n2C)cc1 [Example 252] | 3.65 [a]
Cn1c(C(=NOCc2cccc(NC(=O)OC(C)(C)C)n2)c2cccc(F)c2F)noc1=O [Example 254] | 4.01 [a]
Cn1c(C(=NOCc2cccc(N)n2)c2ccc(F)cc2)noc1=O [Example 259] | 1.41 [a]
CC(Oc1ccc(Cl)cc1)C(=O)Nc1cccc(CON=C(c2ccccc2)c2noc(=O)n2C)n1 (stereo not shown) [Example 260] | 4.35 [a]
Cn1c(C(=NOCc2cccc(NC(=O)COc3ccccc3Br)n2)c2ccccc2)noc1=O [Example 269] | 4.25 [a]
CC(C)CC(C)OC(=O)Nc1cccc(CO/N=C(/c2ccccc2)c2noc(=O)n2C)n1 (stereo not shown) [Example 273] | 4.68 [a]
Cn1c(/C(=N\OCc2cccc(NC(=O)COc3ccc(Cl)cc3Cl)n2)c2ccccc2)noc1=O [Example 274] | 4.61 [a]
CC(Oc1ccccc1Br)C(=O)Nc1cccc(CO/N=C(/c2ccccc2)c2noc(=O)n2C)n1 (stereo not shown) [Example 275] | 4.53 [a]
Cc1cc(Cl)ccc1OCCCC(=O)Nc1cccc(CO/N=C(/c2ccccc2)c2noc(=O)n2C)n1 [Example 277] | 4.73 [a]
CCCOC(=S)Nc1cccc(CO/N=C(/c2ccccc2)c2noc(=O)n2C)n1 [Example 283] | 4.11 [a]
Cc1ccc(OC(C)C(=O)Nc2cccc(CO/N=C(/c3ccccc3)c3noc(=O)n3C)n2)cc1 (stereo not shown) [Example 287] | 4.35 [a]
Cn1c(/C(=N\OCc2cccc(NC(=O)OCCCC(F)(F)C(F)(F)F)n2)c2ccccc2)noc1=O [Example 293] | 4.29 [a]
Cn1c(/C(=N\OCc2cccc(NC(=O)c3ccccc3Oc3ccccc3)n2)c2ccccc2)noc1=O [Example 294] | 4.76 [a]
Cn1c(/C(=N\OCc2cccc(NC(=O)OCCc3ccccc3Br)n2)c2ccccc2)noc1=O [Example 298] | 4.66 [a]
CC(OC(=O)Nc1cccc(CO/N=C(/c2ccccc2)c2noc(=O)n2C)n1)C(C)(C)C (stereo not shown) [Example 305] | 4.56 [a]
Cn1c(/C(=N\OCc2cccc(NC(=O)COc3cccc(F)c3)n2)c2ccccc2)noc1=O [Example 311] | 3.78 [a]
Cn1c(/C(=N\OCc2csc(NC(=O)COc3cccc(Br)c3)n2)c2ccccc2)noc1=O [Example 314] | 3.94 [a]
Cn1c(/C(=N\OCc2csc(NC(=O)COc3ccccc3)n2)c2ccccc2)noc1=O [Example 315] | 3.51 [a]
Cc1ccc(/C(=N/OCc2csc(NC(=O)C(C)Oc3ccccc3)n2)c2noc(=O)n2C)cc1 (stereo not shown) [Example 319] | 3.99 [a]
CCCCSC(=O)Nc1cccc(CO/N=C(/c2ccccc2)c2noc(=O)n2C)n1 [Example 320] | 4.41 [a]
Cc1ccc(/C(=N/OCc2csc(N)n2)c2noc(=O)n2C)cc1 [Example 326] | 1.82 [a]
COc1ccc(/C(=N/OCc2cccc(NC(=O)OC(C)(C)C)n2)c2noc(=O)[nH]2)cc1 [Example 333] | 3.69 [a]
Cc1cccc(OCC(=O)Nc2cccc(CO/N=C(/c3ccccc3)c3noc(=O)n3C)n2)c1 [Example 334] | 4.07 [a]

SMILES | LogP
CC(Oc1ccccc1)C(=O)Nc1nc(CO/N=C(/c2cccc(F)c2)c2noc(=O)n2C)cs1 (stereo not shown) [Example 338] | 3.76 [a]
Cc1ccc(C(=NOCc2csc(NC(=O)OC3CCCCC3)n2)c2noc(=O)n2C)cc1 [Example 339] | 4.48 [a]
Cn1c(/C(=N\OCc2cccc(NC(=O)OCCc3ccc(Cl)cc3)n2)c2ccccc2)noc1=O [Example 349] | 4.53 [a]
CCCCC(C)(C)OC(=O)Nc1cccc(CO/N=C(/c2ccccc2)c2noc(=O)n2C)n1 [Example 353] | 5.1 [a]
Cc1cccc(OCC(=O)Nc2nc(CO/N=C(/c3ccccc3)c3noc(=O)n3C)cs2)c1 [Example 356] | 3.8 [a]
Cn1c(/C(=N\OCc2cccc(NC(=O)OCCc3cccc(Cl)c3)n2)c2ccccc2)noc1=O [Example 359] | 4.51 [a]
Cc1ccc(C(=NOCc2csc(N(C)C=O)n2)c2noc(=O)n2C)cc1 [Example 360] | 3.06 [a]
Cn1c(/C(=N\OCc2csc(NC(=O)COc3cccc(Cl)c3)n2)c2ccccc2)noc1=O [Example 368] | 3.87 [a]
CCCCC(=O)Nc1nc(CO/N=C(/c2cccc(F)c2)c2noc(=O)n2C)cs1 [Example 370] | 3.48 [a]
Cn1c(/C(=N\OCc2cccc(NC(=O)COc3cccc(Br)c3)n2)c2ccccc2)noc1=O [Example 382] | 4.2 [a]
CCCCSC(=S)Nc1cccc(CO/N=C(/c2ccccc2)c2noc(=O)n2C)n1 [Example 385] | 4.8 [a]
Cc1cccc(/C(=N/OCc2cccc(NC(=O)c3cccc(F)c3)n2)c2noc(=O)n2C)c1 [Example 391] | 3.99 [a]
COc1ccc(C(=O)Nc2nc(CO/N=C(/c3ccccc3)c3noc(=O)n3C)cs2)cc1 [Example 393] | 3.48 [a]
Cc1ccc(C2(C(=O)Nc3cccc(CO/N=C(/c4ccccc4)c4noc(=O)n4C)n3)CC2)cc1 [Example 397] | 4.76 [a]
Cc1ccccc1OC(C)C(=O)Nc1cccc(CO/N=C(/c2ccccc2)c2noc(=O)n2C)n1 (stereo not shown) [Example 398] | 4.46 [a]
COc1cccc(C(=NOCc2cccc(NC(=O)c3cccc(F)c3)n2)c2noc(=O)n2C)c1 [Example 399] | 3.72 [a]
Cn1c(/C(=N\OCc2cccc(NC(=O)COc3ccc(Cl)cc3)n2)c2ccccc2)noc1=O [Example 402] | 4.1 [a]
CCCCOC(=S)Nc1nc(CO/N=C(/c2ccccc2)c2noc(=O)n2C)cs1 [Example 410] | 4.56 [a]
Cn1c(/C(=N/OCc2cccc(N)n2)c2cccc(F)c2F)noc1=O [Example 416] | 1.26 [a]
Cn1c(/C(=N\OCc2cccc(NC(=O)OC3CCCCC3)n2)c2cccc(F)c2F)noc1=O [Example 417] | 4.46 [a]
CCCCC(=O)Nc1cccc(CO/N=C(/c2cccc(F)c2F)c2noc(=O)n2C)n1 [Example 420] | 3.55 [a]
Cn1c(/C(=N\OCc2csc(NC(=O)C3COc4ccccc4O3)n2)c2ccccc2Cl)noc1=O (stereo not shown) [Example 442] | 3.73 [a]
CCCCCOC(=O)Nc1cccc(CO/N=C(/c2ccccc2F)c2noc(=O)n2C)n1 [Example 444] | 4.34 [a]
CCCC(C)C(=O)Nc1cccc(CO/N=C(/c2ccccc2F)c2noc(=O)n2C)n1 (stereo not shown) [Example 449] | 3.73 [a]
CC(C)(C)OC(=O)Nc1cccc(CON=C(c2noc(=O)[nH]2)c2cccc(F)c2F)n1 [Example 460] | 3.76 [a]
CCCCCC(=O)Nc1cccc(CO/N=C(/c2cccc(F)c2F)c2noc(=O)n2C)n1 [Example 464] | 3.92 [a]

SMILES | LogP
CCCCC(=O)Nc1cccc(CO/N=C(/c2ccccc2F)c2noc(=O)n2C)n1 [Example 480] | 3.44 [a]
CCCCC(=O)Nc1nc(CO/N=C(/c2ccccc2Cl)c2noc(=O)n2C)cs1 [Example 481] | 3.53 [a]
CC(Oc1ccccc1)C(=O)Nc1nc(CON=C(c2ccccc2Cl)c2noc(=O)n2C)cs1 (stereo not shown) [Example 493] | 3.81 [a]
C#CCCOC(=O)Nc1nc(CON=C(c2ccccc2Cl)c2noc(=O)n2C)cs1 [Example 499] | 3.19 [a]
Cn1c(C(=NOCc2cccc(N)n2)c2cccc(F)c2F)noc1=O [Example 508] | 1.34 [a]
Cn1c(C(=NOCc2cccc(N)n2)c2ccccc2F)noc1=O [Example 510] | 1.23 [a]
CCCCSC(=S)Nc1nc(CON=C(c2ccccc2)c2noc(=O)n2C)cs1 [Example 512] | 4.81 [a]
CCCCCC(=O)Nc1cccc(CO/N=C(/c2ccccc2F)c2noc(=O)n2C)n1 [Example 513] | 3.81 [a]
CCCCOC(=O)Nc1nc(CO/N=C(/c2ccccc2Cl)c2noc(=O)n2C)cs1 [Example 519] | 3.85 [a]
C#CCCOC(=O)Nc1cccc(CO/N=C(/c2ccccc2F)c2noc(=O)n2C)n1 [Example 525] | 3.21 [a]
CCCCCOC(=O)Nc1nc(CO/N=C(/c2ccccc2Cl)c2noc(=O)n2C)cs1 [Example 530] | 4.25 [a]
CCCCCC(=O)Nc1nc(CO/N=C(/c2ccccc2Cl)c2noc(=O)n2C)cs1 [Example 538] | 3.89 [a]
Cn1c(/C(=N\OCc2csc(NC(=O)SC(C)(C)C)n2)c2ccccc2)noc1=O [Example 539] | 4.04 [a]
Cn1c(/C(=N\OCc2csc(NC(=O)Cc3ccccc3)n2)c2ccccc2Cl)noc1=O [Example 543] | 3.51 [a]
CCCCOC(=O)Nc1cccc(CO/N=C(/c2ccccc2F)c2noc(=O)n2C)n1 [Example 552] | 3.92 [a]
CCCCCCN(C(=O)OC(C)(C)C)c1cccc(CO/N=C(/c2cccc(C)c2)c2noc(=O)n2C)n1 [compound 299] | 6.57 [a]
Cn1c(/C(=N\OCc2cccc(NC(=O)OCCCC3CCCC3)n2)c2ccccc2)noc1=O [compound 408] | 5.31 [a]
COc1ccccc1COC(=O)Nc1cccc(CO/N=C(/c2ccccc2)c2noc(=O)n2C)n1 [compound 409] | 4.06 [a]
Cn1c(/C(=N\OCc2cccc(NC(=O)OCc3ccncc3)n2)c2ccccc2)noc1=O [compound 411] | 2.01 [a]
Cn1c(/C(=N\OCc2cccc(NC(=O)OCC3(C)COC3)n2)c2ccccc2)noc1=O [compound 412] | 2.96 [a]
Cn1c(/C(=N\OCc2cccc(NC(=O)OCc3ccccc3Cl)n2)c2ccccc2)noc1=O [compound 413] | 4.34 [a]
CC#CCOC(=O)Nc1cccc(CO/N=C(/c2ccccc2)c2noc(=O)n2C)n1 [compound 414] | 3.42 [a]
CCCCCC#CCOC(=O)Nc1cccc(CO/N=C(/c2ccccc2)c2noc(=O)n2C)n1 [compound 415] | 4.86 [a]
CCCCC#CCOC(=O)Nc1cccc(CO/N=C(/c2ccccc2)c2noc(=O)n2C)n1 [compound 418] | 4.51 [a]
